Reference: the supplement of paper PMC11451515

Key:
Conditions in all cases: 48 h
NOMO1 [1] = experiment: cell viability relative to DMSO control; higher = less cytotoxic
In short: (§1)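 Before seeding, each leukemia line was adapted for at least four passages in each medium. NOMO1 or SEM cells (500 cells/well) and P12-Ichikawa cells (1000 cells/well) went into 1536-well plates at 5 μl, then received library compounds in DMSO by pin dosing across 11 threefold concentrations, 47 μM to 0.79 nM. Readout was CellTiter-Glo One luminescence after 48 h at 37°C, and viability is given as a per-plate percentage of DMSO wells, with cell-free wells as background.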

P12-Ichikawa [2] = experiment: as above
In short: as §1

SEM cells [3] = experiment: as above
In short: as §1

NOMO1 [4] = experiment: AUC of viability dose-response curve (% viability x log10 dose units); higher = less sensitive
In short: (§2)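 Viability of medium-adapted leukemia cells was measured by CellTiter-Glo One luminescence after 48 h at 37°C with library compounds in DMSO. Doses were 11 threefold steps from 47 μM to 0.79 nM, in 1536-well plates at 500 or 1000 cells/well. Signals were normalised per plate to DMSO and cell-free wells and fitted with a four-parameter log-logistic model on log10 dose. Area under the curve was integrated by trapezoidal rule, with curves exceeding full viability scaled and failed quality-control curves removed.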

P12-Ichikawa [5] = experiment: as above
In short: as §2

SEM cells [6] = experiment: as above
In short: as §2

O=C1CCc2cc(OCCCCc3nnnn3C3CCCCC3)ccc2N1
cell viability [%]
Conditions	NOMO1 [1]	P12-Ichikawa [2]	SEM cells [3]
HPLM + 10% dialyzed FBS, 0.000781 µM	92.2	90.5	79.2
HPLM + 10% dialyzed FBS, 0.00234 µM	86.5	92.6	83.1
HPLM + 10% dialyzed FBS, 0.00702 µM	92.8	87.5	101
HPLM + 10% dialyzed FBS, 0.0211 µM	99.6	95.7	92
HPLM + 10% dialyzed FBS, 0.0632 µM	97.6	96.4	92.9
HPLM + 10% dialyzed FBS, 0.19 µM	98.9	97.6	83.8
HPLM + 10% dialyzed FBS, 0.569 µM	107	94.2	88.8
HPLM + 10% dialyzed FBS, 1.71 µM	86	95.6	96.2
HPLM + 10% dialyzed FBS, 5.12 µM	108	96	97.8
HPLM + 10% dialyzed FBS, 15.4 µM	124	97.4	104
HPLM + 10% dialyzed FBS, 46.1 µM	111	96.9	99.3
RPMI 5 mM glucose + 10% FBS, 0.000781 µM	93	78.9	88.8
RPMI 5 mM glucose + 10% FBS, 0.00234 µM	94.7	93.8	88.8
RPMI 5 mM glucose + 10% FBS, 0.00702 µM	91.3	89.2	92
RPMI 5 mM glucose + 10% FBS, 0.0211 µM	82.8	81	91.5
RPMI 5 mM glucose + 10% FBS, 0.0632 µM	85.8	91.2	88.7
RPMI 5 mM glucose + 10% FBS, 0.19 µM	98.4	94.2	75.7
RPMI 5 mM glucose + 10% FBS, 0.569 µM	88.2	98.1	107
RPMI 5 mM glucose + 10% FBS, 1.71 µM	88.7	95.8	104
RPMI 5 mM glucose + 10% FBS, 5.12 µM	92.4	85.2	89.2
RPMI 5 mM glucose + 10% FBS, 15.4 µM	91.2	98.5	104
RPMI 5 mM glucose + 10% FBS, 46.1 µM	91.4	99.2	81.3
RPMI 5 mM glucose + 10% dialyzed FBS, 0.000781 µM	88.6	90.2	80.1
RPMI 5 mM glucose + 10% dialyzed FBS, 0.00234 µM	93	88.1	90
RPMI 5 mM glucose + 10% dialyzed FBS, 0.00702 µM	88.8	90	100
RPMI 5 mM glucose + 10% dialyzed FBS, 0.0211 µM	95.7	94.6	86.2
RPMI 5 mM glucose + 10% dialyzed FBS, 0.0632 µM	88	88.4	78.5
RPMI 5 mM glucose + 10% dialyzed FBS, 0.19 µM	93.1	91.8	87.6
RPMI 5 mM glucose + 10% dialyzed FBS, 0.569 µM	96.9	95.9	92.2
RPMI 5 mM glucose + 10% dialyzed FBS, 1.71 µM	96.5	90.2	92.7
RPMI 5 mM glucose + 10% dialyzed FBS, 5.12 µM	109	89.6	101
RPMI 5 mM glucose + 10% dialyzed FBS, 15.4 µM	93.9	88.1	90.6
RPMI 5 mM glucose + 10% dialyzed FBS, 46.1 µM	96	87.1	88.2

AUC of viability dose-response curve
Conditions	NOMO1 [4]	P12-Ichikawa [5]	SEM cells [6]
HPLM + 10% dialyzed FBS	411	452	439
RPMI 5 mM glucose + 10% FBS	433	436	438
RPMI 5 mM glucose + 10% dialyzed FBS	451	431	428

CN1CCN(c2cc(C(=O)Nc3ccc4c(c3)-c3c(c(C(N)=O)nn3-c3ccc(F)cc3)CC4)c(Cl)cn2)CC1
cell viability [%]
Conditions	NOMO1 [1]	P12-Ichikawa [2]	SEM cells [3]
HPLM + 10% dialyzed FBS, 0.000781 µM	123	115	93.3
HPLM + 10% dialyzed FBS, 0.00234 µM	106	109	95.7
HPLM + 10% dialyzed FBS, 0.00702 µM	108	102	103
HPLM + 10% dialyzed FBS, 0.0211 µM	113	114	109
HPLM + 10% dialyzed FBS, 0.0632 µM	114	114	116
HPLM + 10% dialyzed FBS, 0.19 µM	127	107	110
HPLM + 10% dialyzed FBS, 0.569 µM	113	105	105
HPLM + 10% dialyzed FBS, 1.71 µM	103	98.1	103
HPLM + 10% dialyzed FBS, 5.12 µM	99.4	104	110
HPLM + 10% dialyzed FBS, 15.4 µM	85.9	95	81.8
HPLM + 10% dialyzed FBS, 46.1 µM	1.35	3.56	4.03
RPMI 5 mM glucose + 10% FBS, 0.000781 µM	108	113	–
RPMI 5 mM glucose + 10% FBS, 0.00234 µM	102	111	–
RPMI 5 mM glucose + 10% FBS, 0.00702 µM	111	116	–
RPMI 5 mM glucose + 10% FBS, 0.0211 µM	109	113	–
RPMI 5 mM glucose + 10% FBS, 0.0632 µM	109	109	–
RPMI 5 mM glucose + 10% FBS, 0.19 µM	107	120	–
RPMI 5 mM glucose + 10% FBS, 0.569 µM	112	107	–
RPMI 5 mM glucose + 10% FBS, 1.71 µM	106	102	–
RPMI 5 mM glucose + 10% FBS, 5.12 µM	109	103	–
RPMI 5 mM glucose + 10% FBS, 15.4 µM	97.4	104	–
RPMI 5 mM glucose + 10% FBS, 46.1 µM	2.41	12	–
RPMI 5 mM glucose + 10% dialyzed FBS, 0.000781 µM	116	113	125
RPMI 5 mM glucose + 10% dialyzed FBS, 0.00234 µM	108	107	109
RPMI 5 mM glucose + 10% dialyzed FBS, 0.00702 µM	121	122	121
RPMI 5 mM glucose + 10% dialyzed FBS, 0.0211 µM	102	111	131
RPMI 5 mM glucose + 10% dialyzed FBS, 0.0632 µM	117	124	138
RPMI 5 mM glucose + 10% dialyzed FBS, 0.19 µM	107	109	120
RPMI 5 mM glucose + 10% dialyzed FBS, 0.569 µM	93.4	105	103
RPMI 5 mM glucose + 10% dialyzed FBS, 1.71 µM	100	100	104
RPMI 5 mM glucose + 10% dialyzed FBS, 5.12 µM	99.9	104	109
RPMI 5 mM glucose + 10% dialyzed FBS, 15.4 µM	102	102	106
RPMI 5 mM glucose + 10% dialyzed FBS, 46.1 µM	2.16	5.67	3.39

AUC of viability dose-response curve
Conditions	NOMO1 [4]	P12-Ichikawa [5]	SEM cells [6]
HPLM + 10% dialyzed FBS	442	448	444
RPMI 5 mM glucose + 10% FBS	449	453	360
RPMI 5 mM glucose + 10% dialyzed FBS	451	451	449
